Measurements published in ChEMBL document CHEMBL3991601, “The target landscape of clinical kinase drugs” (Science, 2017).
Calls of active or inactive are those of the source.

Legend:
[1] = molecular target: T1, Long-chain-fatty-acid--CoA ligase 5 (Homo sapiens, UniProt Q9ULC5)
T1 sequence (Q9ULC5 whole entry): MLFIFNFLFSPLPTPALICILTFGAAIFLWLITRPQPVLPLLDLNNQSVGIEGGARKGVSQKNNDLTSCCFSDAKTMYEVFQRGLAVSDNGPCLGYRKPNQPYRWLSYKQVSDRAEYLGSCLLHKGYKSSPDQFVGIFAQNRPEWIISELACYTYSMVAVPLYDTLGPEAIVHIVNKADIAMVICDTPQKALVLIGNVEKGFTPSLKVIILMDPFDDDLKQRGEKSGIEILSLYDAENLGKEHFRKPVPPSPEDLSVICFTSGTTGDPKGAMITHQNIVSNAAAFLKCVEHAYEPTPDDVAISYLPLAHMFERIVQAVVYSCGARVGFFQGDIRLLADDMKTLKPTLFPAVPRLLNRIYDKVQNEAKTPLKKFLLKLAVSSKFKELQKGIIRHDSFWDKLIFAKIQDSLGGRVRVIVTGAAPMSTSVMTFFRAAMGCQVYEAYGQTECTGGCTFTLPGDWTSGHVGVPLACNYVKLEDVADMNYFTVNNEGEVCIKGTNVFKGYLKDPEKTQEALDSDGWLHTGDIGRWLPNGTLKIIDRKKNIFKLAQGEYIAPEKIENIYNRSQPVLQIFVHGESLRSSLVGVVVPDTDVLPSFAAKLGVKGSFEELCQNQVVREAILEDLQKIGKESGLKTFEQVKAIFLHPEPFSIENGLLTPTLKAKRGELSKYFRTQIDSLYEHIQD

Ephrin type-A receptor 7 = Ephrin type-A receptor 7 (Homo sapiens, UniProt Q15375)
[2] = molecular target: Membrane-associated progesterone receptor component 1 (Homo sapiens, UniProt O00264)
[3] = molecular target: T2, ATP-dependent RNA helicase DHX30 (Homo sapiens, UniProt Q7L2E3)
T2 sequence (Q7L2E3 whole entry): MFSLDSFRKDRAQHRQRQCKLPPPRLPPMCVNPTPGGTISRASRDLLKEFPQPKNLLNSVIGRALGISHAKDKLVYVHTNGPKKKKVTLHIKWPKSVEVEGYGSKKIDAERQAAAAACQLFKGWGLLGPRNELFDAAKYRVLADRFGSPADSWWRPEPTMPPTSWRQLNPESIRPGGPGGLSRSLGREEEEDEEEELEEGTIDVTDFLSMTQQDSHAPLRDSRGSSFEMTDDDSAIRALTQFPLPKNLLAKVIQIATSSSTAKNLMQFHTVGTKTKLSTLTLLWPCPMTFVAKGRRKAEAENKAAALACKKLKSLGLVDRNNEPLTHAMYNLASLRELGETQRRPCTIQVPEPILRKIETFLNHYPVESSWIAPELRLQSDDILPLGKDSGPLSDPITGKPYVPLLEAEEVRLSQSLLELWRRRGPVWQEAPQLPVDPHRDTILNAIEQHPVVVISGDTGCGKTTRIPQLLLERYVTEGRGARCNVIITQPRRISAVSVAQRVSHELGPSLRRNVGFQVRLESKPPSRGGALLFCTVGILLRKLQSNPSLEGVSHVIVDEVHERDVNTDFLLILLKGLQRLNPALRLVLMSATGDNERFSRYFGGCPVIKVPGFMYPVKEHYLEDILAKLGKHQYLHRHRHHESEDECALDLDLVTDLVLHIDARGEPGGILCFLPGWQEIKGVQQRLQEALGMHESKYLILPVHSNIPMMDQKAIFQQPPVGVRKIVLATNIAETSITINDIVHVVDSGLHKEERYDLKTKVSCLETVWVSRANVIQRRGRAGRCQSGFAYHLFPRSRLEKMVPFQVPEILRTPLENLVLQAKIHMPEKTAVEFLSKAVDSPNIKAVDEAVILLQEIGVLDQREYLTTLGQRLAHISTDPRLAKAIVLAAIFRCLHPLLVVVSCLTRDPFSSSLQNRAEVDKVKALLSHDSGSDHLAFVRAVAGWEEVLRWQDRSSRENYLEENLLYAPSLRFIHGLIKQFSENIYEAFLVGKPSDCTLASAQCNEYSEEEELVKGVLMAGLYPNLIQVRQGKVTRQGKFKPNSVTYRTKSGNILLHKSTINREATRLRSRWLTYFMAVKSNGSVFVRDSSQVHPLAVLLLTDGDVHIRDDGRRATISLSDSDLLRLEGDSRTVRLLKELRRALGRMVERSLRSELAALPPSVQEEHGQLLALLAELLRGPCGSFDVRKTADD

[4] = molecular target: Serine/threonine-protein kinase pim-2 (Homo sapiens, UniProt Q9P1W9)
Further: in the data inactive means no Kd found up to 30 µM.

Sequence of Serine/threonine-protein kinase pim-2 (Q9P1W9 whole entry): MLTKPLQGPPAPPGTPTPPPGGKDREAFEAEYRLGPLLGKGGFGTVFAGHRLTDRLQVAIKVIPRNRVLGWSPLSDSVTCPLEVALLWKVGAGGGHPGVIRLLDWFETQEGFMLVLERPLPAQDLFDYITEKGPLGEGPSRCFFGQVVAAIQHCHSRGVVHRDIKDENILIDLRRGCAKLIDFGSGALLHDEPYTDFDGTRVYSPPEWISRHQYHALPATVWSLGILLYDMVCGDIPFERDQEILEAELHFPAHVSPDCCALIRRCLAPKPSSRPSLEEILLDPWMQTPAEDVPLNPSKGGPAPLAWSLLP
Sequence of Membrane-associated progesterone receptor component 1 (O00264 whole entry): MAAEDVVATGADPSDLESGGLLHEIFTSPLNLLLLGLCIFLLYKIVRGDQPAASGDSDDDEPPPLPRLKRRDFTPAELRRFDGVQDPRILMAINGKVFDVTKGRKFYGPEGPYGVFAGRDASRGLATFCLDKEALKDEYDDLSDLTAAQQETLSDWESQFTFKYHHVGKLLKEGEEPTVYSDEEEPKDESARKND
Sequence of Ephrin type-A receptor 7 (Q15375 whole entry): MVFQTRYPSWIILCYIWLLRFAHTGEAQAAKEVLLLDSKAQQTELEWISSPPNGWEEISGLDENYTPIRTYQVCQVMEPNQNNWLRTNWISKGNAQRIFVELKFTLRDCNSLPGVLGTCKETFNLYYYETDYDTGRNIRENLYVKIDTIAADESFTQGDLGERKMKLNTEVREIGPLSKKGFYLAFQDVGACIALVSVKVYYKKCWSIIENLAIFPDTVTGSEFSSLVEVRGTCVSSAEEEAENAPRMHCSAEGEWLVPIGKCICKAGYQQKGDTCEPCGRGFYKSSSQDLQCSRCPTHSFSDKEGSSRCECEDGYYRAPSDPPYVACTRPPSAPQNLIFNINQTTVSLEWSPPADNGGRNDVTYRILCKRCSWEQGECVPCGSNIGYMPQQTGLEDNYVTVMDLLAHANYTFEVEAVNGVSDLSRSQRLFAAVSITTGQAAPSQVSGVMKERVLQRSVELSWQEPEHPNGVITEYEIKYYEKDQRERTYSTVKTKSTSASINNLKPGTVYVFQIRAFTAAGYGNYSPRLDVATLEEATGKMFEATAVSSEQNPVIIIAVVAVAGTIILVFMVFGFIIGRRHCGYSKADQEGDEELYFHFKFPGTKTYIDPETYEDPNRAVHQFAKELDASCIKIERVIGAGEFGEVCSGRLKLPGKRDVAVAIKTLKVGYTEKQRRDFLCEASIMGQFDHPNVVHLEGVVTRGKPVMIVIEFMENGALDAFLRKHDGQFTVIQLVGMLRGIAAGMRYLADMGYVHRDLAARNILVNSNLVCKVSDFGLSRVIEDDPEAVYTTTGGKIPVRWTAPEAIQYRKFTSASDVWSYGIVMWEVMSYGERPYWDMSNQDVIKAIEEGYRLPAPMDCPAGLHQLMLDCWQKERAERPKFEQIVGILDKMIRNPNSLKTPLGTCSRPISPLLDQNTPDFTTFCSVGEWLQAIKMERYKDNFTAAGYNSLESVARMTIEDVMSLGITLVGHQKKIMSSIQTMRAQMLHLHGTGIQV

SMILES	Kd [1]	Kd (Ephrin type-A receptor 7)	Kd [2]	Kd [3]	Kd [4]
O=c1sn(-c2cccc3ccccc23)c(=O)n1Cc1ccccc1 [TIDEGLUSIB]	> 30 µM (inactive)	> 30 µM (inactive)	> 30 µM (inactive)	–	–
Cn1ncc(Cl)c1-c1cc(C(=O)N[C@H](CN)Cc2cccc(F)c2)sc1Cl [AFURESERTIB]	–	> 30 µM (inactive)	> 30 µM (inactive)	> 30 µM (inactive)	> 30 µM (inactive)
CNS(=O)(=O)Nc1nccc(Cc2c(C)c3ccc(Oc4ncccn4)cc3oc2=O)c1F [AVUTOMETINIB]	–	> 30 µM (inactive)	> 30 µM (inactive)	> 30 µM (inactive)	> 30 µM (inactive)
CN(C)C(=O)c1cc2cnc(Nc3ccc(N4CCNCC4)cn3)nc2n1C1CCCC1 [RIBOCICLIB]	–	> 30 µM (inactive)	> 30 µM (inactive)	> 30 µM (inactive)	> 30 µM (inactive)
C[C@@H](Nc1cc(F)cc(F)c1)c1cc(C(=O)N(C)C)cc2c(=O)cc(N3CCOCC3)oc12 [AZD-8186]	> 30 µM (inactive)	> 30 µM (inactive)	–	–	–
CNC(=O)c1ccc(C)c(-n2c(C)cc(OCc3ccc(F)cc3F)c(Br)c2=O)c1 [PH-797804]	> 30 µM (inactive)	–	> 30 µM (inactive)	> 30 µM (inactive)	–
C[C@@H](c1ccc2nccn2c1)n1nnc2ncc(-c3cnn(C)c3)nc21 [SAVOLITINIB]	> 30 µM (inactive)	–	> 30 µM (inactive)	–	–
CN1CCC(COc2cnc(-c3cccc(Cn4nc(-c5cccc(C#N)c5)ccc4=O)c3)nc2)CC1 [TEPOTINIB]	> 30 µM (inactive)	> 30 µM (inactive)	> 30 µM (inactive)	> 30 µM (inactive)	–
COc1cc(N2CCC(N3CCN(C)CC3)CC2)ccc1Nc1ncnc(Nc2ccccc2S(=O)(=O)C(C)C)n1 [ASP-3026]	–	> 30 µM (inactive)	–	–	> 30 µM (inactive)
CNC(=O)c1ccc(-c2cnc3ncc(Cc4ccc5ncccc5c4)n3n2)cc1F [CAPMATINIB]	–	> 30 µM (inactive)	–	> 30 µM (inactive)	> 30 µM (inactive)
CCn1c(=O)c(-c2cc[nH]n2)cc2c(C)nc(N)nc21 [VOXTALISIB]	–	–	> 30 µM (inactive)	–	–
COc1cc(OC)c(/C=C/S(=O)(=O)Cc2ccc(OC)c(NCC(=O)O)c2)c(OC)c1 [RIGOSERTIB]	–	> 30 µM (inactive)	–	> 30 µM (inactive)	> 30 µM (inactive)
C=CC(=O)N1CCC(Oc2cc3c(Nc4ccc(Cl)c(Cl)c4F)ncnc3cc2OC)CC1 [POZIOTINIB]	–	> 30 µM (inactive)	–	> 30 µM (inactive)	–
CC[C@H](Nc1ncnc2[nH]cnc12)c1nc2cccc(F)c2c(=O)n1-c1ccccc1 [IDELALISIB]	> 30 µM (inactive)	> 30 µM (inactive)	> 30 µM (inactive)	> 30 µM (inactive)	–
Cc1cn(-c2cc(NC(=O)c3ccc(C)c(Nc4nccc(-c5cccnc5)n4)c3)cc(C(F)(F)F)c2)cn1 [NILOTINIB]	–	–	> 30 µM (inactive)	> 30 µM (inactive)	–
O=C1NC(=O)/C(=C/c2ccc3nccc(-c4ccncc4)c3c2)S1 [GSK-1059615]	–	> 30 µM (inactive)	> 30 µM (inactive)	> 30 µM (inactive)	–
CN1N=C(N)c2cn([C@@H]3O[C@H](COP(=O)(O)O)[C@@H](O)[C@H]3O)c3ncnc1c23 [TRICIRIBINE PHOSPHATE]	–	–	> 30 µM (inactive)	> 30 µM (inactive)	–
Cc1cc(Nc2cc(N3CCN(C)CC3)nc(/C=C/c3ccccc3)n2)n[nH]1 [ENMD-2076]	> 30 µM (inactive)	–	> 30 µM (inactive)	> 30 µM (inactive)	–
CN1CCC(CNc2ccc3ncc(-c4cccc(OC(F)(F)F)c4)n3n2)CC1 [SGI-1776]	> 30 µM (inactive)	> 30 µM (inactive)	–	–	–

SMILES	Kd [1]	Kd (Ephrin type-A receptor 7)	Kd [2]	Kd [3]	Kd [4]
CC(C)Nc1cc(-c2c[nH]c(C(=O)N[C@H](CO)c3cccc(Cl)c3)c2)c(Cl)cn1 [ULIXERTINIB]	> 30 µM (inactive)	–	> 30 µM (inactive)	–	–
CC[C@@H]1C(=O)N(C)c2cnc(Nc3ccc(C(=O)N[C@H]4CC[C@H](N5CCN(CC6CC6)CC5)CC4)cc3OC)nc2N1C(C)C [VOLASERTIB]	> 30 µM (inactive)	> 30 µM (inactive)	> 30 µM (inactive)	> 30 µM (inactive)	–
O=C(Nc1cccc(Cl)c1)Nc1ncc(CCNc2ncnc3ccsc23)s1 [SNS-314]	> 30 µM (inactive)	> 30 µM (inactive)	> 30 µM (inactive)	> 30 µM (inactive)	–
Cc1ccc(S(=O)(=O)Nc2nc3ccccc3nc2Nc2ccc3nsnc3c2)cc1	> 30 µM (inactive)	> 30 µM (inactive)	–	> 30 µM (inactive)	–
Cc1nc(N)sc1-c1ccnc(Nc2ccc(N3CCOCC3)cc2)n1 [CYC-116]	–	–	> 30 µM (inactive)	–	–
COc1cc2nccc(Oc3ccc(NC(=O)NC4CC4)c(Cl)c3)c2cc1C(N)=O [LENVATINIB]	> 30 µM (inactive)	–	> 30 µM (inactive)	–	–
COC(=O)N[C@@H](C)CNc1nccc(-c2cn(C(C)C)nc2-c2cc(Cl)cc(NS(C)(=O)=O)c2F)n1 [ENCORAFENIB]	–	> 30 µM (inactive)	0.204 µM	> 30 µM (inactive)	–
CCS(=O)(=O)N1CC(CC#N)(n2cc(-c3ncnc4[nH]ccc34)cn2)C1 [BARICITINIB]	> 30 µM (inactive)	> 30 µM (inactive)	> 30 µM (inactive)	> 30 µM (inactive)	–
CCn1c(-c2nonc2N)nc2c(C#CC(C)(C)O)ncc(OC[C@H]3CCCNC3)c21 [GSK-690693]	> 30 µM (inactive)	–	> 30 µM (inactive)	–	–
CO[C@H]1C[C@@H]2CC[C@@H](C)[C@@](O)(O2)C(=O)C(=O)N2CCCC[C@H]2C(=O)O[C@H]([C@H](C)C[C@@H]2CC[C@@H](OCCO)[C@H](OC)C2)CC(=O)[C@H](C)/C=C(\C)[C@@H](O)[C@@H](OC)C(=O)[C@H](C)C[C@H](C)/C=C/C=C/C=C/1C [EVEROLIMUS]	> 30 µM (inactive)	> 30 µM (inactive)	–	> 30 µM (inactive)	–
C1=C/COCc2cc(ccc2OCCN2CCCC2)Nc2nccc(n2)-c2cccc(c2)COC/1 [PACRITINIB]	–	> 30 µM (inactive)	–	–	–
N[C@@H]1CCCN(c2c(/C=C3\SC(=O)NC3=O)cccc2-c2ccccc2)C1	–	> 30 µM (inactive)	> 30 µM (inactive)	> 30 µM (inactive)	–
CN1CCN(c2ccc3nc(-c4c(N)c5c(F)cccc5[nH]c4=O)[nH]c3c2)CC1 [DOVITINIB]	–	–	> 30 µM (inactive)	> 30 µM (inactive)	–
Nc1nc(N)c2nc(-c3cccc(O)c3)c(-c3cccc(O)c3)nc2n1 [TG100-115]	> 30 µM (inactive)	–	–	> 30 µM (inactive)	–
O=C(Nc1ccc(-c2ccnc(Nc3ccc(N4CCOCC4)cc3)n2)cc1)C1CCCN1 (centres undefined) [XL-019]	> 30 µM (inactive)	> 30 µM (inactive)	–	> 30 µM (inactive)	–
O=C(c1ccc(F)c(F)c1Nc1ccc(I)cc1F)N1CC(O)([C@@H]2CCCCN2)C1 [COBIMETINIB]	> 30 µM (inactive)	> 30 µM (inactive)	> 30 µM (inactive)	> 30 µM (inactive)	–
C[C@@H]1CN(Cc2ccc(F)cc2)[C@@H](C)CN1C(=O)c1cc2c(C(=O)C(=O)N(C)C)cn(C)c2cc1Cl [TALMAPIMOD]	> 30 µM (inactive)	> 30 µM (inactive)	> 30 µM (inactive)	> 30 µM (inactive)	–
Cc1cc([C@@H](C)Nc2ccccc2C(=O)O)c2nc(N3CCOCC3)cc(=O)n2c1 [AZD-6482]	> 30 µM (inactive)	> 30 µM (inactive)	> 30 µM (inactive)	> 30 µM (inactive)	–
